Read-outs that look alike come from different tables or passages of the source.
How the values were obtained:
L-phenylserine aldolase [1] = format: biochemical, Pseudomonas putida biovar A24-1 strain; details: compound as substrate
Description: E. coli JM109 strain was transformed with the plasmid pKK-PSA1 obtained in Example 4. The resulting transformant was inoculated to liquid LB medium (Bacto-tryptone 10 g/l, Bacto-yeast extract 5 g/l, sodium chloride 10 g/l; pH 7.2) containing ampicillin (50 mg/l), and cultured at 30° C. overnight. Then, an aliquot of the culture was inoculated to 2×YT medium (Bacto-tryptone 20 g/l, Bacto-yeast extract 10 g/l, sodium chloride 10 g/l; pH 7.2) containing ampicillin (50 mg/l). The bacterial cells were cultured at 30° C., and then the induction was achieved by treating the cells with 0.1 mM IPTG for 4 hours. The bacterial cells were harvested by centrifugation. The cells were suspended in 100 mM TES-NaOH buffer (pH 7.2) containing 0.02% 2-mercaptoethanol, 2 mM EDTA, and 20 μM pyridoxal-5′-phosphate. The cell suspension was sonicated in a closed sonicator UCD-200™ (Cosmo Bio) for 3 minutes to lyse the bacterial cells. The bacterial cell lysate was centrifuged and the resulting supernatant was used as cell-free extract. The activity of L-phenylserine aldolase was assayed using the cell-free extract. The specific activity was confirmed to be 20.0 U/mg.
When the activity to DL-threo-phenyl serine was taken as 100%, the relative activity was estimated to be 31.3%.

L-phenylserine aldolase [2] = assay: Substrate specificity of purified L-phenylserine aldolase under the standard assay conditions; details: compound as substrate; for Relative activity: activity to DL-threo-β-phenyl serine taken as 100, purified enzyme, standard assay conditions
L-phenylserine aldolase [3] = assay: Effect of cations on the activity of L-phenylserine aldolase; format: biochemical, Pseudomonas putida biovar A24-1 strain; details: for activation of the enzyme by cation (in words): monovalent or divalent cations
[4] = compound 50 mM, preincubated with enzyme at 30° C. for 10 minutes, […]
[5] = compound 0.1 mM, preincubated with enzyme at 30° C. for 10 minutes, activity in the absence of cation taken as 100
[6] = compound 0.1 mM, preincubated with enzyme at 30° C. for 10 minutes, […]

With `N[C@@H](C(=O)O)[C@H](O)C1CCCCC1` (racemic) the Relative activity (L-phenylserine aldolase [1]; activity to DL-threo-phenyl serine taken as 100%) was 31.3% and the “enzymatic activity to the substrate” value (L-phenylserine aldolase [1]; cell-free extract of Example 5) was 6.26 U/mg.
For `N[C@@H](C(=O)O)[C@H](O)c1ccccc1` (racemic) [DL-erythro-β-phenyl serine], the Relative activity (L-phenylserine aldolase [2]) was 130.
`N[C@@H](C(=O)O)[C@@H](O)c1ccccc1` (racemic) [DL-threo-β-phenyl serine] showed a Relative activity (L-phenylserine aldolase [2]) of 100.
`CCC(O)C(N)C(=O)O` (racemic) [DL-β-hydroxynorvaline] gave a Relative activity (L-phenylserine aldolase [2]) of 0.
`NCC(O)c1ccccc1` (racemic) [DL-β-hydroxyphenylethylamine] showed a Relative activity (L-phenylserine aldolase [2]) of 0.
With `Cl.N` [Ammonium chloride] the Relative activity (L-phenylserine aldolase [3]; [4]) was 92%.
`[Ba+2].[Cl-].[Cl-]` [Barium chloride] gave a Relative activity (L-phenylserine aldolase [3]; [5]) of 90%.
`[Cl][Co][Cl]` [Cobalt chloride] was tested, and the Relative activity (L-phenylserine aldolase [3]; [6]) was 98%.
Compound `O=S(=O)([O-])[O-].[Cu+2]` [Copper sulfate] has a Relative activity (L-phenylserine aldolase [3]) of 89%.
`C[C@@H](O)[C@@H](N)C(=O)O` [D-allo-threonine] was tested, and the Relative activity (L-phenylserine aldolase [2]) was 0.
For `N[C@@H](C(=O)O)[C@H](O)c1ccccc1` [D-erythro-phenyl serine], the “activity to the compound” value (L-phenylserine aldolase [2]) was “undetectable”.
For `N[C@H](CO)C(=O)O` [D-serine], the Relative activity (L-phenylserine aldolase [2]) was 0.
With `N[C@@H](C(=O)O)[C@@H](O)c1ccccc1` [D-threo-phenyl serine] the “activity to the compound” value (L-phenylserine aldolase [2]) was “undetectable”.
`C[C@H](O)[C@@H](N)C(=O)O` [D-threonine] was tested, and the Relative activity (L-phenylserine aldolase [2]) was 0.
`O=S(=O)([O-])[O-].[Fe+2]` [Ferric (II) sulfate] showed a Relative activity (L-phenylserine aldolase [3]) of 91%.
In the case of `C[C@H](O)[C@H](N)C(=O)O` [L-allo-threonine], the “enzymatic activity to the compound (in words)” value (shortened to “enzymatic activity … (in words)”) (L-phenylserine aldolase [2]) is reported as “low enzymatic activity” and the Relative activity (L-phenylserine aldolase [2]) is reported as 8.
With `O=C(O)[C@@H](O)Cc1ccccc1` [L-phenyllactic acid] the Relative activity (L-phenylserine aldolase [2]) was 0.
With `N[C@@H](CO)C(=O)O` [L-serine] the “enzymatic activity … (in words)” value (L-phenylserine aldolase [2]) was “almost no activity” and the Relative activity (L-phenylserine aldolase [2]) was 0.
`C[C@@H](O)[C@H](N)C(=O)O` [L-threonine] was tested, and the “enzymatic activity … (in words)” value (L-phenylserine aldolase [2]) was “low enzymatic activity” and the Relative activity (L-phenylserine aldolase [2]) was 2.1.
For `[Cl-].[Cl-].[Mg+2]` [Magnesium chloride], the Relative activity (L-phenylserine aldolase [3]) was 98%.
Work on `[Cl-].[K+]` [Potassium chloride] yielded a Relative activity (L-phenylserine aldolase [3]; [4]) of 94%.
Work on `[Cl-].[Na+]` [Sodium chloride] yielded a Relative activity (L-phenylserine aldolase [3]; [4]) of 88%.
With `[Cl-].[Cl-].[Zn+2]` [Zinc chloride] the Relative activity (L-phenylserine aldolase [3]; [6]) was 92%.
With `N` [ammonium ion] the “activation of the enzyme by cation (in words)” value (“activation of the enzyme” for short) (L-phenylserine aldolase [3]) was “not activated”.
In the case of `[Mn+2]` [manganese ion], the “activation of the enzyme” value (L-phenylserine aldolase [3]) is reported as “not activated”.
In the case of `[K+]` [potassium ion], the “activation of the enzyme” value (L-phenylserine aldolase [3]) is reported as “not activated”.
With DL-β-thienyl serine the Relative activity (L-phenylserine aldolase [2]) was 170.
For Manganese chloride, the Relative activity (L-phenylserine aldolase [3]; [5]) was 92%.

— patent US20060009524A1, “Methods for producing D-beta-hydroxyamino acids” (priority 2004, published 2006)
